From ChEMBL document CHEMBL5335825, “Multi-target potential of newly designed tacrine-derived cholinesterase inhibitors: Synthesis, computational and pharmacological study” (Bioorg Med Chem, 2024)
Activity calls are given as the source filed them. No cut-off for these calls is given here.

What was measured:
in vitro = conditions: human, SH-SY5Y cells
Description: Cytotoxicity against human SH-SY5Y cells assessed as reduction in cell viability incubated for 24 hrs by crystal violet staining based analysis

Acetylcholinesterase = Acetylcholinesterase (Electrophorus electricus, UniProt O42275); experiment: Inhibition of electric eel AChE using acetylthiocholine iodide as substrate preincubated for 10 mins followed by substrate addition and measured every min for 10 mins by DTNB based Ellman's assay
Acetylcholinesterase, sequence (O42275 whole entry): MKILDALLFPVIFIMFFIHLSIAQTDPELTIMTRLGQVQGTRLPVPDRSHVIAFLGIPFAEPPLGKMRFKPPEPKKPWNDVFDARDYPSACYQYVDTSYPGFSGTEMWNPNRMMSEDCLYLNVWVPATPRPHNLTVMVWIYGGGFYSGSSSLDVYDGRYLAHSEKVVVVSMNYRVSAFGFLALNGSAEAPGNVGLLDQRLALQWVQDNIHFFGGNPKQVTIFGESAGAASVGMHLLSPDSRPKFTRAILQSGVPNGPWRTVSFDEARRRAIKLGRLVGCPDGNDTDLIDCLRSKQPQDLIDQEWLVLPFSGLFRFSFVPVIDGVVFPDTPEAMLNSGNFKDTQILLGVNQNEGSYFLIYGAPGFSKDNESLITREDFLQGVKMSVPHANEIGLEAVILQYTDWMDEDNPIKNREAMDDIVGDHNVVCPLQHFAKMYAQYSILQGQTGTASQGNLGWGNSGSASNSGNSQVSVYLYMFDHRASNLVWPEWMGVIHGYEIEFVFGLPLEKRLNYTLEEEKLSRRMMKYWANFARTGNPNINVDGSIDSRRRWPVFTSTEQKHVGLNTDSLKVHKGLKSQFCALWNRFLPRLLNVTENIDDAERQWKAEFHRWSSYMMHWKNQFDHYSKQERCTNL

Cholinesterase = Cholinesterase (Equus caballus, UniProt P81908); experiment: Inhibition of equine serum BuChE using butyrylthiocholine iodide as substrate preincubated for 10 mins followed by substrate addition and measured every min for 10 mins by DTNB based Ellman's assay
Cholinesterase, sequence (P81908 whole entry): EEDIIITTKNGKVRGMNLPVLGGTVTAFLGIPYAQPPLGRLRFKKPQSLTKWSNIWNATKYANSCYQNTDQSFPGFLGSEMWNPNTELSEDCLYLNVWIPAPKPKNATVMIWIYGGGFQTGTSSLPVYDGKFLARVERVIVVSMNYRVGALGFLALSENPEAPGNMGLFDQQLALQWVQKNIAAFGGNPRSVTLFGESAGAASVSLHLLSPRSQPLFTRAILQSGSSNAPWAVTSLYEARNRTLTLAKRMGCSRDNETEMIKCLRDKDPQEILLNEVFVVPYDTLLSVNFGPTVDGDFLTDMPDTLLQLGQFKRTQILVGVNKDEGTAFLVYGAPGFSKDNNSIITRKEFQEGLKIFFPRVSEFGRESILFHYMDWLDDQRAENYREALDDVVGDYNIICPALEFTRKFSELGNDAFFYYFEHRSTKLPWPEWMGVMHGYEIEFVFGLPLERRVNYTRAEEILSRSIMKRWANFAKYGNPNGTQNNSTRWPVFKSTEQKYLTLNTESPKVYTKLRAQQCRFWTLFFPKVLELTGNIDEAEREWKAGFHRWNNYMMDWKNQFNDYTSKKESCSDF

[1] = Selectivity index, ratio of IC50 for cytotoxicity against human SH-SY5Y cells to IC50 for inhibition of electric eel AChE
[2] = Selectivity index, ratio of IC50 for cytotoxicity against human SH-SY5Y cells to IC50 for inhibition of equine serum BuChE
[3] = molecular target: Acetylcholinesterase (Electrophorus electricus) (UniProt O42275); experiment: Mixed type inhibition of electric eel AChE using varying concentrations of acetylthiocholine iodide as substrate assessed as decrease in Vmax with varied Km by Lineweaver-Burk plot analysis
Acetylcholinesterase (Electrophorus electricus), sequence (O42275 24-633 limits assumed): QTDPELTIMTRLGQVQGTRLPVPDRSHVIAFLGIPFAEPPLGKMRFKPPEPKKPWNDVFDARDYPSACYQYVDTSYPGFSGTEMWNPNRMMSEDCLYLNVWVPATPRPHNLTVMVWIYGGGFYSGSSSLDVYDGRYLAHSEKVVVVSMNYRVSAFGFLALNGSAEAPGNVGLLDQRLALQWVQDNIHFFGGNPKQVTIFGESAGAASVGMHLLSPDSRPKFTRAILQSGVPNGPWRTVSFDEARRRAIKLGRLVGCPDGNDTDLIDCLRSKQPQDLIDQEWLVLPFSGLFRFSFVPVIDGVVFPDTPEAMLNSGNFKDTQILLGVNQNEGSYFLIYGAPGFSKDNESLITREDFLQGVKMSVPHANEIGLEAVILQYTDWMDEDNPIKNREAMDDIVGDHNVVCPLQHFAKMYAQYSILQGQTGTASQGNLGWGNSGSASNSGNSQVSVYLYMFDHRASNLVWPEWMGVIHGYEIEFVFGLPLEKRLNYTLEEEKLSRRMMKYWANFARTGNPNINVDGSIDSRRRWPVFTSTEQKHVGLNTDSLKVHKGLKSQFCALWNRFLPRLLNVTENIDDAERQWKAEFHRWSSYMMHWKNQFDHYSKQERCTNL

[4] = molecular target: Cholinesterase (Equus caballus) (UniProt P81908); experiment: Mixed type inhibition of equine serum BuChE using varying concentrations of butyrylthiocholine iodide as substrate assessed as decrease in Vmax with varied Km by Lineweaver-Burk plot analysis
Cholinesterase (Equus caballus), sequence (P81908 whole entry): as the sequence (P81908 whole entry) above

## COc1cccc(C(=O)N2CCC(C(=O)NCCCCCNc3c4c(nc5ccccc35)CCCC4)CC2)c1
In vitro
  IC50 at 24 h: 93.6 µM
Acetylcholinesterase
  IC50: 0.287 µM
Cholinesterase
  IC50: 0.0605 µM
[1]
  Ratio IC50: 326
[2]
  Ratio IC50: 1546.3

## O=C(NCCCCCNc1c2c(nc3ccccc13)CCCC2)C1CCN(C(=O)c2ccccn2)CC1
In vitro
  IC50 at 24 h: 112 µM
Acetylcholinesterase
  IC50: 0.455 µM
Cholinesterase
  IC50: 0.324 µM
[1]
  Ratio IC50: 247.1
[2]
  Ratio IC50: 347.1

## O=C(NCCCCCNc1c2c(nc3ccccc13)CCCC2)C1CCN(C(=O)c2ccc(Cl)cc2)CC1
In vitro
  IC50 at 24 h: 30.7 µM
Acetylcholinesterase
  IC50: 0.443 µM
Cholinesterase
  IC50: 0.114 µM
[1]
  Ratio IC50: 69.4
[2]
  Ratio IC50: 268.5

## O=C(NCCCCCNc1c2c(nc3ccccc13)CCCC2)C1CCN(C(=O)c2ccncc2)CC1
In vitro
  IC50 at 24 h: 137 µM
Acetylcholinesterase
  IC50: 0.291 µM
Cholinesterase
  IC50: 0.084 µM
[1]
  Ratio IC50: 472
[2]
  Ratio IC50: 1635.1

## O=C(NCCCCCNc1c2c(nc3ccccc13)CCCC2)C1CCN(C(=O)c2cccc(F)c2)CC1
In vitro
  IC50 at 24 h: 58 µM
Acetylcholinesterase
  IC50: 0.139 µM
Cholinesterase
  IC50: 0.0735 µM
[1]
  Ratio IC50: 417.2
[2]
  Ratio IC50: 789

## O=C(NCCCCCNc1c2c(nc3ccccc13)CCCC2)C1CCN(C(=O)c2cccc(Cl)c2)CC1
In vitro
  IC50 at 24 h: 147 µM
Acetylcholinesterase
  IC50: 0.159 µM
Cholinesterase
  IC50: 0.0705 µM
[1]
  Ratio IC50: 926.2
[2]
  Ratio IC50: 2082.3

## O=C(NCCCCCNc1c2c(nc3ccccc13)CCCC2)C1CCN(C(=O)c2ccccc2Cl)CC1
In vitro
  IC50 at 24 h: 186 µM
Acetylcholinesterase
  IC50: 0.156 µM
[3]
  inhibition: Active
Cholinesterase
  IC50: 0.0825 µM
[4]
  inhibition: Active
[1]
  Ratio IC50: 1188.8
[2]
  Ratio IC50: 2247.9

## O=C(NCCCCCNc1c2c(nc3ccccc13)CCCC2)C1CCN(C(=O)c2ccccc2)CC1
In vitro
  IC50 at 24 h: 69.3 µM
Acetylcholinesterase
  IC50: 0.117 µM
Cholinesterase
  IC50: 0.0465 µM
[1]
  Ratio IC50: 589.8
[2]
  Ratio IC50: 1490.3

## O=C(NCCCCCNc1c2c(nc3ccccc13)CCCC2)C1CCN(C(=O)c2ccccc2F)CC1
In vitro
  IC50 at 24 h: 192 µM
Acetylcholinesterase
  IC50: 0.241 µM
Cholinesterase
  IC50: 0.034 µM

## O=C(NCCCCCNc1c2c(nc3ccccc13)CCCC2)C1CCN(C(=O)c2cccnc2)CC1
Acetylcholinesterase
  IC50: 0.162 µM
Cholinesterase
  IC50: 0.0985 µM

## COc1ccc(C(=O)N2CCC(C(=O)NCCCCCNc3c4c(nc5ccccc35)CCCC4)CC2)cc1
In vitro
  IC50 at 24 h: 149 µM
Acetylcholinesterase
  IC50: 0.222 µM
Cholinesterase
  IC50: 0.246 µM
[1]
  Ratio IC50: 667.9
[2]
  Ratio IC50: 605.3

## O=C(NCCCCCNc1c2c(nc3ccccc13)CCCC2)C1CCN(C(=O)c2ccc(F)cc2)CC1
Acetylcholinesterase
  IC50: 0.37 µM
Cholinesterase
  IC50: 0.153 µM

## COc1ccccc1C(=O)N1CCC(C(=O)NCCCCCNc2c3c(nc4ccccc24)CCCC3)CC1
In vitro
  IC50 at 24 h: 109 µM
Acetylcholinesterase
  IC50: 0.226 µM
Cholinesterase
  IC50: 0.048 µM
[1]
  Ratio IC50: 480.4
[2]
  Ratio IC50: 2266.7
